Bounds are passed on as bounds.

In the first assay the target is T1, Isoform 2 of Nuclear receptor ROR-alpha (Alpha-2) (Homo sapiens, UniProt P35398).
T1 sequence (P35398 whole entry): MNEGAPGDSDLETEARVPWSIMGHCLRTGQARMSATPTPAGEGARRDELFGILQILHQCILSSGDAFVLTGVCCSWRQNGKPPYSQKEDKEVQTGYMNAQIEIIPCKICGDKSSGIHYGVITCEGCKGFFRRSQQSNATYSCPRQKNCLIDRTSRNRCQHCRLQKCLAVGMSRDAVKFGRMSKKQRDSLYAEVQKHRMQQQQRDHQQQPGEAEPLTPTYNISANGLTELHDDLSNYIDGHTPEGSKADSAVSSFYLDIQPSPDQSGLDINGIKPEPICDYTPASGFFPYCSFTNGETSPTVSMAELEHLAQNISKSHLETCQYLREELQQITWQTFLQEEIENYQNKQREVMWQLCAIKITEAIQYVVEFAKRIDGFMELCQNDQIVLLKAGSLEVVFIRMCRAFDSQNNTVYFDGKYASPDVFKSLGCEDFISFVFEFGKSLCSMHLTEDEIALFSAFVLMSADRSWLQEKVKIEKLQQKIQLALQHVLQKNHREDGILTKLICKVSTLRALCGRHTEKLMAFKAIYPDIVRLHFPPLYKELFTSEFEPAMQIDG
The assay can be described thus: activators of RORA nuclear receptor, dose response, cell-based, CHO-K1, Gal4-RORA LBD, luciferase luminescence (AID 681).
Details: not given
In general, EC50 refers to the concentration needed to bring the measured effect to its halfway point. Read a low EC50 as greater potency. `Cc1cc(NCCOCCO)n2ncc(-c3ccc(Cl)cc3)c2n1` [2-[2-[[3-(4-chlorophenyl)-5-methyl-7-pyrazolo[1,5-a]pyrimidinyl]amino]ethoxy]ethanol] had a 50% effective concentration (EC50) of 536 nM. Compound `COc1cccc(-c2noc(-c3cccs3)n2)c1` [3-(3-methoxyphenyl)-5-(2-thienyl)-1,2,4-oxadiazole] displayed an EC50 above 407 nM. On the same count and under the same terms, with `COc1ccc(C(O)P(=O)(O)CCc2ccccc2)cc1` (stereo not drawn) [MLS000038577] the figure was above 99000 nM. Take `Clc1ccccc1OCCn1cnc2ccccc21` [1-[2-(2-chloranylphenoxy)ethyl]benzimidazole]: the EC50 is above 1220 nM.

On to `CCOc1ccc(C=CC(C)N=O)cc1` (stereo not drawn) [(Z)-4-(4-ethoxyphenyl)-3-buten-2-one oxime], for which the concentration for a half-maximal effect (EC50) stood at 491 nM. Compound `Cn1cccc1C(=O)OCc1csc(-c2ccccc2)n1` [(2-phenyl-1,3-thiazol-4-yl)methyl 1-methylpyrrole-2-carboxylate] yielded an EC50 of 221 nM. Same read-out and setting: with `CCOc1ccc(-c2nc(C#N)c(NC3CC3)o2)cc1` [5-(cyclopropylamino)-2-(4-ethoxyphenyl)-1,3-oxazole-4-carbonitrile] the figure was 624 nM; with `O=C(c1ccco1)N1CCN(c2ncnc3c(-c4ccccc4)nsc23)CC1` [2-furanyl-[4-(3-phenyl-7-isothiazolo[4,5-d]pyrimidinyl)-1-piperazinyl]methanone], 4340 nM; with `COc1ccc2nc(NC(=O)CSc3nnc(-c4ccoc4C)n3C)sc2c1` [MLS000073639], 2030 nM. In turn, `COc1cc(C)c(C(C)C)cc1S(=O)(=O)n1cnc(C)c1` [1-(2-methoxy-4-methyl-5-propan-2-yl-phenyl)sulfonyl-4-methyl-imidazole] returned an EC50 of 1850 nM. `COc1ccc(Nc2oc(-c3ccccc3Cl)nc2C#N)cc1` [2-(2-chlorophenyl)-5-(4-methoxyanilino)-1,3-oxazole-4-carbonitrile] registered a concentration for a half-maximal effect (EC50) of 1920 nM. The EC50 values of the last two compounds are within 1.5-fold of each other.

As for `Nc1c(C(=O)NCCN2CCOCC2)c2nc3ccccc3nc2n1-c1ccc2c(c1)OCO2` [2-amino-1-(1,3-benzodioxol-5-yl)-N-(2-morpholin-4-ylethyl)pyrrolo[3,2-b]quinoxaline-3-carboxamide], the EC50 was above 1100 nM. For the compound `O=C(Nc1nnc(C23CC4CC(CC(C4)C2)C3)s1)c1ccco1` [N-[5-(1-adamantyl)-1,3,4-thiadiazol-2-yl]furan-2-carboxamide], the response was half-maximal at 317 nM (EC50).

`C=CCOc1ccc(C=CC(C)N=O)cc1` (stereo not drawn) [(E)-4-(4-allyloxyphenyl)but-3-en-2-one oxime] registered a 50% effective concentration (EC50) of 1350 nM.

As for `COC(=O)c1c(NC(=O)CC2SCC(C(=O)OC)NC2=O)sc2c1CCCC2` (stereo not drawn) [6-[2-[(3-carbomethoxy-4,5,6,7-tetrahydrobenzothiophen-2-yl)amino]-2-keto-ethyl]-5-keto-thiomorpholine-3-carboxylic acid methyl ester], the concentration giving a half-maximal response (EC50) is above 99000 nM.

In turn, `CCN(CCCNC(=O)c1cn(CC)c2ccc(S(=O)(=O)N(C)C)cc2c1=O)c1cccc(C)c1` [6-(dimethylsulfamoyl)-1-ethyl-N-[3-(N-ethyl-3-methyl-anilino)propyl]-4-keto-quinoline-3-carboxamide] had an EC50 above 99000 nM. Still for that read-out and setting: with `Oc1coc2ccc(OCc3ccc(F)cc3)cc12` [5-(4-fluorobenzyl)oxycoumaran-3-one] the figure was 3630 nM; with `CCCCOc1ccc(-c2nnn(CC(=O)NCc3ccco3)n2)cc1` [2-[5-(4-Butoxy-phenyl)-tetrazol-2-yl]-N-furan-2-ylmethyl-acetamide], 5070 nM. On the same count and under the same terms, then `Cc1cc(N)c(NC2=CC(=O)CC(C)(C)C2)cc1C` [3-(2-amino-4,5-dimethyl-anilino)-5,5-dimethyl-cyclohex-2-en-1-one], with above 99000 nM. The compound `CCOC(=O)Nc1ccc2c(c1)Nc1ccccc1S2` [(10H-Phenothiazin-2-yl)-carbamic acid ethyl ester] had a concentration for a half-maximal effect (EC50) of 3430 nM. This lies in the single-digit micromolar range. Regarding `CCOC(=O)CSc1nc2cc(OCC)ccc2cc1C#N` [(3-Cyano-7-ethoxy-quinolin-2-ylsulfanyl)-acetic acid ethyl ester], the midpoint of the response, the EC50, lay at 1830 nM. Turning to `CC(=O)C(C)Oc1ccc2c3c(c(=O)oc2c1C)CCCC3` (stereo not drawn) [3-(2-keto-1-methyl-propoxy)-4-methyl-7,8,9,10-tetrahydrobenzo[c]chromen-6-one], the EC50 stood at 628 nM. Against the preceding compound, the EC50 is about 2.9-fold lower. Take `CCn1c(-c2ccc(N(C)C)cc2)nc2ccccc21` [4-(1-ethyl-2-benzimidazolyl)-N,N-dimethylaniline]: the EC50 worked out at 823 nM. Same read-out and setting: then `O=C(NC1CCCC1)c1cc(-c2cccs2)on1` [MLS000087238], with 1030 nM; and `COc1ccc(C(=O)n2c(-c3ccco3)nc3ccccc32)cc1` [MLS000039368], with 4000 nM; and `CCOC(=O)c1ccccc1NC(=O)CSc1nnnn1C1CCCCC1` [2-[2-(1-Cyclohexyl-1H-tetrazol-5-ylsulfanyl)-acetylamino]-benzoic acid ethyl ester], with above 99000 nM.

With `CCOc1cc(N2CCOCC2)c(OCC)cc1NS(=O)(=O)c1ccc(Cl)s1` [5-chloranyl-N-(2,5-diethoxy-4-morpholin-4-yl-phenyl)thiophene-2-sulfonamide], the EC50 turned out to be 2640 nM. This lies in the single-digit micromolar range. Regarding `COc1ccccc1-c1nnc(NC(C)=O)s1` [MLS000041972], the concentration giving a half-maximal response (EC50) amounted to 1750 nM. `Cc1ccccc1Cn1ccc(NC(=O)c2onc(C)c2Cl)n1` [4-chloranyl-3-methyl-N-[1-[(2-methylphenyl)methyl]pyrazol-3-yl]-1,2-oxazole-5-carboxamide] yielded an EC50 above 11000 nM. For `COc1ccc(CCC(=O)Nc2ccc3c(c2)OCCO3)cc1` [MLS000110197], the 50% effective concentration (EC50) is above 99000 nM. With `CCn1c(Cn2nnc(-c3ccccc3)n2)nnc1SCC(=O)Nc1ccc(C(C)=O)cc1` [MLS000068275], the EC50 was above 99000 nM. For `Cc1cccn2cc(-c3ccccc3)nc12` [8-methyl-2-phenyl-imidazo[1,2-a]pyridine], the concentration giving a half-maximal response (EC50) was found to be 563 nM. As to `Cc1ccc2nc(Nc3ccc4[nH]c(O)nc4c3)c(-n3nc(C)cc3C)nc2c1` [5-[[3-(3,5-dimethyl-1-pyrazolyl)-6-methyl-2-quinoxalinyl]amino]-1,3-dihydrobenzimidazol-2-one], the EC50 is above 3670 nM.

Take `Cc1cc(NC(=O)c2oc3ccccc3c2C)ccc1-n1cnnn1` [3-Methyl-benzofuran-2-carboxylic acid (3-methyl-4-tetrazol-1-yl-phenyl)-amide]: the response was half-maximal at 8220 nM (EC50).

In turn, `CCc1nnc2c3cnn(-c4ccccc4)c3ncn12` [MLS000080478] gave an EC50 above 3670 nM. In the case of `CN1CCN(S(=O)(=O)c2ccc(Br)s2)CC1` [1-(5-bromanylthiophen-2-yl)sulfonyl-4-methyl-piperazine], the EC50 was above 99000 nM.

`CCOc1ccc2nc(N3CCC(C(=O)N4CCN(c5ccccn5)CC4)CC3)sc2c1` [MLS000119552] gave a concentration giving a half-maximal response (EC50) above 3670 nM. In turn, `COc1cccc(NC(=O)c2nnn(Cc3ccc(Br)cc3F)c2N)c1` [5-amino-1-(4-bromo-2-fluoro-benzyl)-N-(3-methoxyphenyl)triazole-4-carboxamide] registered a 50% effective concentration (EC50) of 4570 nM. This lies in the single-digit micromolar range. `CCN(CC)C(=O)Oc1ccc2c(=O)c(-c3ccccc3)coc2c1` [(4-oxidanylidene-3-phenyl-chromen-7-yl) N,N-diethylcarbamate]: the EC50 was determined as 1240 nM.

In turn, `Cc1ccc2c(c1)c1c3n2CCCNC3CCC1` (stereo not drawn) [MLS000105423] returned a concentration for a half-maximal effect (EC50) above 99000 nM.

Compound `Cc1ccc(-c2nc(C#N)c(NCc3ccco3)o2)cc1` [5-(2-furanylmethylamino)-2-(4-methylphenyl)-4-oxazolecarbonitrile] registered an EC50 of 2320 nM.

Turning to `COc1cccc(-c2noc(-c3cccnc3)n2)c1` [3-(3-methoxyphenyl)-5-(3-pyridinyl)-1,2,4-oxadiazole], the response was half-maximal at 853 nM (EC50). Compound `Cn1c(SCc2ccccc2F)nc2cccnc21` [2-(2-Fluoro-benzylsulfanyl)-3-methyl-3H-imidazo[4,5-b]pyridine] registered a concentration for a half-maximal effect (EC50) of 1980 nM. Same read-out and setting: with `CC(C)CNS(=O)(=O)c1ccc(C(=O)Nc2ccc3c(c2)OCCO3)cc1` [MLS000032888] the figure was 3480 nM. Compound `O=C(Nc1ccc2nc(-c3ccc(Br)o3)[nH]c2c1)c1cccs1` [SMR000046012] had an EC50 of 4090 nM. The compound `COc1ccccc1-c1nc(-c2ccncc2)no1` [4-[5-(2-Methoxy-phenyl)-[1,2,4]oxadiazol-3-yl]-pyridine] showed an EC50 of 3440 nM. In turn, `Cc1nc(N=CN(C)C)sc1C(=O)Nc1ccccc1` [SMR000107046] registered a half-maximal effective concentration (EC50) of 5110 nM. Regarding `O=C1N(CCCN2C(=O)C3(OCCO3)c3ccccc32)c2ccccc2C12OCCO2` [1'-[3-(2'-ketospiro[1,3-dioxolane-2,3'-indoline]-1'-yl)propyl]spiro[1,3-dioxolane-2,3'-indoline]-2'-one], the EC50 was above 99000 nM. For the compound `Cc1c(C(=O)OCC2CCCO2)[nH]c2c1C(=O)CC(c1ccco1)C2` (stereo not drawn) [oxolan-2-ylmethyl 6-(furan-2-yl)-3-methyl-4-oxo-1,5,6,7-tetrahydroindole-2-carboxylate], the EC50 amounted to 1670 nM.

Take `Clc1ccc(-c2nnc(-c3ccccc3Cl)o2)cc1` [2-(2-chlorophenyl)-5-(4-chlorophenyl)-1,3,4-oxadiazole]: the EC50 was 431 nM.

Still in this assay, the particulars now being: inactive by the depositor's call.
Consider `O=C(CSc1nc[nH]n1)Nc1nnc(-c2ccccc2)s1` [SMR000091719], for which the EC50 came out at 12100 nM. Turning to `O=c1c2ccccc2nc2ccc(NCc3ccco3)nn12` [2-(2-furanylmethylamino)-10-pyridazino[6,1-b]quinazolinone], the concentration giving a half-maximal response (EC50) was found to be 10800 nM.

`O=C(NCc1cccs1)c1noc2c1CCCC2` [MLS000087354] displayed an EC50 of 10100 nM.

The values above are taken from BindingDB's records for doi:10.7270/Q2RJ4GVG (The Scripps Research Institute Molecular Screening Center, 2007).
